Measured values taken from US8507472B2 (priority 2010, dated 2013).

Columns and labels:
Sphaerotheca fuliginea = test: Sphaerotheca test (cucumber)/protective; type: in vivo; conditions: in vivo
Protocol: (§1) Solvent: 49 parts by weight of N,N-dimethylformamide
(§2) Emulsifier: 1 part by weight of alkylaryl polyglycol ether
(§3) To produce a suitable preparation of active compounds, 1 part by weight of active compound is mixed with the stated amounts of solvent and emulsifier, and the concentrate is diluted with water to the desired concentration.
To test for protective activity, young cucumber plants are sprayed with the active compound preparation at the stated application rate. 1 day after the treatment, the plants are inoculated with a spore suspension of Sphaerotheca fuliginea. The plants are then placed in a greenhouse at 70% rel. atmospheric humidity and a temperature of 23° C.
(§4) Evaluation is carried out 7 days after the inoculation. 0% means an efficacy which corresponds to that of the control, whereas an efficacy of 100% means that no infection is observed.

Pyrenophora teres = Pyrenophora teres test (barley)/protective; type: in vivo; conditions: in vivo
Protocol: as §1, §2, §3
(§5) To test for protective activity, young barley plants are sprayed with the active compound preparation at the stated application rate. 1 day after the treatment, the plants are inoculated with an aqueous spore suspension of Pyrenophora teres and then remain at 100% rel. atmospheric humidity and 22° C. for 48 h. The plants are then placed in a greenhouse at 80% rel. atmospheric humidity and a temperature of 20° C.
(§6) Evaluation is carried out 7-9 days after the inoculation. 0% means an efficacy which corresponds to that of the control, whereas an efficacy of 100% means that no infection is observed.

Leptosphaeria nodorum = Leptosphaeria nodorum test (wheat)/protective; type: in vivo; conditions: in vivo
Protocol: as §1, §2, §3
as §5, with “wheat” for “barley”, “Leptosphaeria nodorum” for “Pyrenophora teres”, “90%” for “80%”, “22°” for “20°”
as §6

Alternaria solani = test: Alternaria test (tomato)/protective; type: in vivo; conditions: in vivo
Protocol: as §1, §2
To produce a suitable preparation of active compound, 1 part by weight of active compound is mixed with the stated amounts of solvent and emulsifier, and the concentrate is diluted with water to the desired concentration.
To test for protective activity, young tomato plants are sprayed with the active compound preparation at the stated application rate. 1 day after the treatment, the plants are inoculated with a spore suspension of Alternaria solani and then remain at 100% rel. humidity and 22° C. for 24 h. The plants then remain at 96% rel. atmospheric humidity and a temperature of 20° C.
as §4

Phytophthora infestans = type: in vivo; conditions: in vivo
[1] = log P determination by HPLC retention times (alkan-2-one calibration); conditions: preparation examples in the text

Row | SMILES | efficacy in % (Sphaerotheca fuliginea) [%] | efficacy in % (Pyrenophora teres) [%] | chromatographic logP ([1]; log P(HCOOH), HCOOH) | further results
1 | CCC(=O)Nc1cc(-c2c(-c3ccc(F)cc3)nn3c2CCOC3)ccn1 [Example 95] | 95 | 100 |  | efficacy in % (Leptosphaeria nodorum): 90%; efficacy in % (Alternaria solani): 80%
2 | FC(F)(F)c1ccc(-c2nn3c(c2-c2ccncc2)CCC3)cc1 [Example 17] |  |  |  | efficacy in % (Phytophthora infestans): 80%
3 | Nc1cc(-c2c(-c3ccc(F)cc3)nn3c2CCC3)ccn1 [Example 69] |  |  |  | efficacy in % (Phytophthora infestans): 70%
4 | CC1CC1C(=O)Nc1cc(-c2c(-c3ccc(F)cc3)nn3c2CCOC3(C)C)ccn1 (stereo not drawn) [Example 101] | 98 | 95 |  | efficacy in % (Leptosphaeria nodorum): 70%; efficacy in % (Alternaria solani): 90%
5 | CC(=O)Nc1cc(-c2c(-c3ccc(F)cc3)nn3c2CCCCC3)ccn1 [Example 99] | 98 | 95 |  | efficacy in % (Leptosphaeria nodorum): 95%; efficacy in % (Alternaria solani): 80%
6 | CCC(=O)Nc1cc(-c2c(-c3ccc(F)cc3)nn3c2COCC3)ccn1 [Example 104] | 93 | 95 |  | efficacy in % (Alternaria solani): 80%
7 | CC(C)C(=O)Nc1cc(-c2c(-c3ccc(F)cc3)nn3c2CCCCC3)ccn1 [Example 97] | 100 | 100 |  | efficacy in % (Leptosphaeria nodorum): 80%; efficacy in % (Alternaria solani): 70%
8 | CC1(C)OCCc2c(-c3ccnc(NC(=O)C4CC4)c3)c(-c3ccc(F)cc3)nn21 [Example 84] | 98 | 94 |  | efficacy in % (Leptosphaeria nodorum): 88%
9 | [O-]c1on[n+]2c1CCCCC2 [III-1, 5,6,7,8-Tetrahydro-4H-[1,2,3]oxadiazolo[3,4-a]azepin-9-ium 3-olate] |  |  | 0.6 | 
10 | COc1ccc(-c2cc3n(n2)CCC3)cc1 [VII-7, 2-[4-(Methoxy)phenyl]-5,6-dihydro-4H-pyrrolo[1,2-b]pyrazole] |  |  | 2.17 | 
11 | Fc1cccc(-c2cc3n(n2)CCC3)c1 [VII-10, 2-[3-Fluorophenyl]-5,6-dihydro-4H-pyrrolo[1,2-b]pyrazole] |  |  | 2.46 | 
12 | Fc1ccc(-c2cc3n(n2)CCOC3)cc1 [VIIa-1, 2-(4-Fluorophenyl)-6,7-dihydro-4H-pyrazolo[5,1-c][1,4]oxazine] |  |  | 2.01 | 
13 | COC(=O)c1c(-c2ccc(F)cc2)nn2c1C(C)CC2 (stereo not drawn) [XXX-2, Methyl 2-(4-fluorophenyl)-4-methyl-5,6-dihydro-4H-pyrrolo[1,2-b]pyrazole-3-carboxylate] |  |  | 2.71 | 
14 | CCOC(=O)CC(=NN1CCCC1=O)c1ccccc1F [XXVIII-4, Ethyl 3-(2-fluorophenyl)-3-[(2-oxopyrrolidin-1-yl)imino]propanoate] |  |  | 1.97 | 
15 | Cc1ccc(-c2nn3c(c2I)CCC3)cc1 [VIII-7, 2-[4-Methylphenyl]-3-iodo-5,6-dihydro-4H-pyrrolo[1,2-b]pyrazole] |  |  | 3.54 | 
16 | FC(F)(F)c1ccc(-c2nn3c(c2I)CCC3)cc1 [VIII-10, 2-[4-(Trifluoromethyl)phenyl]-3-iodo-5,6-dihydro-4H-pyrrolo[1,2-b]pyrazole] |  |  | 4.13 | 
17 | c1csc(-c2cc3n(n2)CCCC3)c1 [VII-11, 2-(2-Thienyl)-4,5,6,7-tetrahydropyrazolo[1,5-a]pyridine] |  |  | 2.42 | 
18 | O=C(Nc1cc(-c2c(-c3ccc(F)cc3)nn3c2CCOC3)ccn1)C1CCC1 [Example 109] | 93 | 95 |  | efficacy in % (Alternaria solani): 90%
19 | CC1CC1C(=O)Nc1cc(-c2c(-c3ccc(F)cc3)nn3c2CCOC3)ccn1 (stereo not drawn) [Example 108] | 95 | 95 |  | efficacy in % (Leptosphaeria nodorum): 70%; efficacy in % (Alternaria solani): 80%
20 | O=C(Nc1cc(-c2c(-c3ccc(F)cc3)nn3c2CCOC3)ccn1)C1CC1 [Example 107] | 100 | 95 |  | efficacy in % (Leptosphaeria nodorum): 90%
21 | COCC(=O)Nc1cc(-c2c(-c3ccc(F)cc3)nn3c2CCOC3)ccn1 [Example 94] | 93 | 95 |  | efficacy in % (Alternaria solani): 90%
22 | CC1(C)OCCc2c(-c3ccnc(NC(=O)C4CCC4)c3)c(-c3ccc(F)cc3)nn21 [Example 102] | 100 | 95 |  | efficacy in % (Leptosphaeria nodorum): 90%; efficacy in % (Alternaria solani): 95%
23 | COC(=O)CC(=NN1CCC(C)C1=O)c1ccc(F)cc1 (stereo not drawn) |  |  | 2.09 | 

Row | SMILES | efficacy in % (Sphaerotheca fuliginea) [%] | efficacy in % (Pyrenophora teres) [%] | chromatographic logP ([1]; log P(HCOOH), HCOOH) | further results
24 | COC(=O)CC(=NN1C(=O)CCC1C)c1ccc(F)cc1 (stereo not drawn) [XXVIII-1, Methyl 3-(4-fluorophenyl)-3-[(2-methyl-5-oxopyrrolidin-1-yl)imino]propanoate] |  |  | 2.13 | 
25 | CCC(=O)Nc1cc(-c2c(-c3ccccc3)nn3c2COCC3)ccn1 [Example 100] | 95 | 100 |  | efficacy in % (Leptosphaeria nodorum): 70%; efficacy in % (Alternaria solani): 80%
26 | CC1CCc2c(I)c(-c3ccc(F)cc3)nn21 (stereo not drawn) [VIII-19, 2-(4-Fluorophenyl)-3-iodo-6-methyl-5,6-dihydro-4H-pyrrolo[1,2-b]pyrazole] |  |  | 3.82 | 
27 | CC1CCc2c(C(=O)O)c(-c3ccccc3F)nn21 (stereo not drawn) [XXXI-3, 2-(2-Fluorophenyl)-6-methyl-5,6-dihydro-4H-pyrrolo[1,2-b]pyrazole-3-carboxylic acid] |  |  | 1.64 | 
28 | Fc1ccc(-c2nn3c(c2I)CCCC3)cc1 [VIII-1, 2-(4-Fluorophenyl)-3-iodo-4,5,6,7-tetrahydropyrazolo[1,5-a]pyridine] |  |  | 3.79 | 
29 | CC(C)CC(=O)Nc1cc(-c2c(-c3ccc(F)cc3)nn3c2CCOC3)ccn1 [Example 112] | 95 | 95 |  | efficacy in % (Leptosphaeria nodorum): 90%; efficacy in % (Alternaria solani): 90%
30 | Clc1ccc(-c2cc3n(n2)CCC3)cc1 [VII-4, 2-(4-Chlorophenyl)-5,6-dihydro-4H-pyrrolo[1,2-b]pyrazole] |  |  | 2.86 | 
31 | c1ccc(-c2cc3n(n2)CCC3)cc1 [VII-2, 2-(Phenyl)-5,6-dihydro-4H-pyrrolo[1,2-b]pyrazole] |  |  | 2.19 | 
32 | CCOC(=O)c1c(-c2ccccc2F)nn2c1CCC2 [XXX-3, Ethyl 2-(2-fluorophenyl)-5,6-dihydro-4H-pyrrolo[1,2-b]pyrazole-3-carboxylate] |  |  | 2.49 | 
33 | CC(C)Nc1cc(-c2c(-c3ccc(Cl)cc3)nn3c2CCC3)ccn1 [Example 48] |  |  |  | efficacy in % (Phytophthora infestans): 70%
34 | Brc1c(-c2ccccc2)nn2c1CSCC2 [VIII-18, 3-Bromo-2-phenyl-6,7-dihydro-4H-pyrazolo[5,1-c][1,4]thiazine] |  |  | 3.42 | 
35 | Ic1c(-c2ccsc2)nn2c1CCC2 [VIII-8, 2-[3-Thienyl]-3-iodo-5,6-dihydro-4H-pyrrolo[1,2-b]pyrazole] |  |  | 2.97 | 
36 | Clc1ccc(C#Cc2ccncc2)cc1 [II-5, 4-{[4-Chlorophenyl]ethynyl}pyridine] |  |  | 2.43 | 
37 | O=C(Cc1ccccc1)Nc1cc(-c2c(-c3ccc(F)cc3)nn3c2CCCCC3)ccn1 [Example 98] | 90 | 95 |  | efficacy in % (Alternaria solani): 90%
38 | Fc1ccccc1-c1nn2c(c1Br)CCC2 [VIII-22, 3-Bromo-2-(2-fluorophenyl)-5,6-dihydro-4H-pyrrolo[1,2-b]pyrazole] |  |  | 2.81 | 
39 | FC(F)(F)c1cccc(C#Cc2ccncc2)c1 [II-2, 4-{[3-(Trifluoromethyl)phenyl]ethynyl}pyridine] |  |  |  | chromatographic logP ([1]; pH 7, log P(pH7), pH7): 3.5
40 | CC1CCC(=O)N1N=C(c1ccccc1)c1ccccc1 (stereo not drawn) [XXVI-1, 1-[(Diphenylmethylene)amino]-5-methylpyrrolidin-2-one] |  |  | 2.73 | 
41 | Clc1ccc(-c2nn3c(c2I)CCC3)cc1 [VIII-4, 2-(4-Chlorophenyl)-3-iodo-5,6-dihydro-4H-pyrrolo[1,2-b]pyrazole] |  |  | 3.88 | 
42 | CC(CCC(=O)NN=C(c1ccccc1)c1ccccc1)OS(C)(=O)=O (stereo not drawn) [5-[2-(diphenylmethylene)hydrazino]-5-oxopentan-2-yl methanesulphonate] |  |  | 2.82 | 
43 | CC(=O)Nc1cc(-c2c(-c3ccc(F)cc3)nn3c2CCOC3)ccn1 [Example 106] | 75 | 95 |  | efficacy in % (Alternaria solani): 80%
44 | CC(C)(C)OC1Cc2c([O-])on[n+]2C1 (stereo not drawn) [III-4, 5-tert-Butoxy-5,6-dihydro-4H-pyrrolo[1,2-c][1,2,3]oxadiazol-7-ium 3-olate] |  |  | 1.34 | 
45 | CCOC(=O)CC(=NN1C(=O)CCC1C)c1ccccc1F (stereo not drawn) [XXVIII-3, Ethyl 3-(2-fluorophenyl)-3-[(2-methyl-5-oxopyrrolidin-1-yl)imino]propanoate] |  |  | 2.34 | 
46 | Fc1ccc(-c2nn3c(c2I)CCC3)cc1 [VIII-6, 2-(4-Fluorophenyl)-3-iodo-5,6-dihydro-4H-pyrrolo[1,2-b]pyrazole] |  |  | 3.3 | 
